This test has as its target T1, angiotensin-converting enzyme (ACE) (Ovis aries, UniProt A0ACI6QSL6).
T1 sequence (A0ACI6QSL6 34-1310): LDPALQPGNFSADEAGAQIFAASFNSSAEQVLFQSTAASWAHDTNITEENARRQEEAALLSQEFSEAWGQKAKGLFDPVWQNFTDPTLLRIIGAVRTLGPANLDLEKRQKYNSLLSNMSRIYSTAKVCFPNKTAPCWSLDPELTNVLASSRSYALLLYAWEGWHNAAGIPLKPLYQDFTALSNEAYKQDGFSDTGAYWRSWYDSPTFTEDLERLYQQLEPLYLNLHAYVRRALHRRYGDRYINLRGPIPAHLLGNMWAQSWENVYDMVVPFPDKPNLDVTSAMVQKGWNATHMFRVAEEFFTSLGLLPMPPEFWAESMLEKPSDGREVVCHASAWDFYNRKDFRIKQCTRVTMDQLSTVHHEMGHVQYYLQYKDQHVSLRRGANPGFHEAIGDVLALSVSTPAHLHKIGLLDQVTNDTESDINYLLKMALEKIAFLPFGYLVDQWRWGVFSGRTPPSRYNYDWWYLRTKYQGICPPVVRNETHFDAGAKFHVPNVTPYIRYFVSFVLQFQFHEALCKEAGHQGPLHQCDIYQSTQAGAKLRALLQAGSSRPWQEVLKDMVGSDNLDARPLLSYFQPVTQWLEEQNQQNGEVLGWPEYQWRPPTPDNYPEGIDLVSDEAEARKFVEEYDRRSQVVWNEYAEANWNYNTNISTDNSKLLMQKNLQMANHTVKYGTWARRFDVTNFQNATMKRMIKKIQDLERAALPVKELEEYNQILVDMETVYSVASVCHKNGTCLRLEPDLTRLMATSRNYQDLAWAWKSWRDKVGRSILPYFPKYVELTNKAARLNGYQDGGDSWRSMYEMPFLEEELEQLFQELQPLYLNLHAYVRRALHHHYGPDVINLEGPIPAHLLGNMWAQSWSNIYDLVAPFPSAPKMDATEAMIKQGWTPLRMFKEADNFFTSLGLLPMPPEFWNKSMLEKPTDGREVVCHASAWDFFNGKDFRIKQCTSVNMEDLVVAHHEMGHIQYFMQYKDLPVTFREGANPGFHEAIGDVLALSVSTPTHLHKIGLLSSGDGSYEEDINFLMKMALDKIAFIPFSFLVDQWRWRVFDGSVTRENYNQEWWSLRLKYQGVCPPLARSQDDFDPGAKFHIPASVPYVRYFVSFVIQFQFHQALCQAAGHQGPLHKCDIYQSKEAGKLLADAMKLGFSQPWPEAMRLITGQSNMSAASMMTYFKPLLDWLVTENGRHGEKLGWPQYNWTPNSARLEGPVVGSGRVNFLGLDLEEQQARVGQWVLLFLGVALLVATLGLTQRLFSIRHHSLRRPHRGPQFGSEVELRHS
Kind of test: spectrophotometric FAPGG hydrolysis assay at […] nm. The class given is biochemical.

Experimental findings from publication PMC8176444 (Molecular Biology Reports, 2021) are described below.

Molecules are shown by their SMILES.

The Ki is a dissociation constant, usually derived from enzyme kinetics or from competition with a known ligand. Higher therefore signals a looser hold on the target.

The molecule `C[C@H](CS)C(=O)N1CCC[C@H]1C(=O)O` [captopril] gave a Ki of 0.39 nM. This lies in the sub-nanomolar range.
